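Assay format: 96-well plates, 48-hour exposure. GI50 = concentration required for 50% inhibition of growth. TGI: total growth inhibition.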
Columns and labels:
Assay in all cases: NCI-60 cell line screen, 48 h
[1] = tested on: BT-549 breast
[2] = tested on: CCRF-CEM leukemia
[3] = tested on: COLO 205 colon
[4] = tested on: DU-145 prostate
[5] = tested on: HOP-62 NSCLC
[6] = tested on: MDA-MB-435
[7] = tested on: SNB-19 CNS
[8] = tested on: T-47D breast
[9] = tested on: DLD-1 colon
[10] = tested on: LXFL 529 NSCLC

Structure (SMILES) | GI50 [1] | TGI [1] | GI50 [2] | TGI [2] | GI50 [3] | TGI [3] | GI50 [4] | TGI [4] | GI50 [5] | TGI [5] | GI50 [6] | TGI [6] | GI50 [7] | TGI [7] | GI50 [8] | TGI [8] | TGI [9] | TGI [10] | GI50 [9] | GI50 [10]
COc1cc2ncn(-c3cc(OCCc4ccccc4)c(C(N)=O)s3)c2cc1OC | > 25 µM | > 25 µM | 8.5 µM | > 25 µM | 24.4 µM | > 25 µM | > 23.2 µM | > 25 µM | > 25 µM | > 25 µM | 9.55 µM | > 25 µM | > 25 µM | > 25 µM | > 25 µM | > 25 µM | – | – | – | –
CC(C)OC(=O)NNc1cc(Cl)ccc1Cl | – | > 100 µM | – | > 100 µM | – | > 100 µM | – | > 100 µM | – | > 100 µM | – | > 100 µM | – | > 100 µM | – | > 100 µM | – | – | – | –
O=C(Nc1ccc(CO)cc1)c1coc2ccccc2c1=O | 90.7 µM | > 100 µM | > 100 µM | > 100 µM | > 100 µM | > 100 µM | > 100 µM | > 100 µM | > 100 µM | > 100 µM | > 100 µM | > 100 µM | > 100 µM | > 100 µM | > 100 µM | > 100 µM | – | – | – | –
CN1NC(=Nc2ccccc2)Sc2c1cnn(-c1ccccc1)c2=O | – | – | – | > 100 µM | – | > 100 µM | – | – | – | > 100 µM | – | – | – | > 100 µM | – | – | > 100 µM | > 100 µM | – | –
C[n+]1cc(C(O)c2ccc3c(c2)OCO3)c2ccccc2c1 (configuration not stated) | – | – | – | > 100 µM | – | > 100 µM | – | – | – | > 100 µM | – | – | – | > 100 µM | – | – | > 100 µM | – | – | –
Cc1cc(C)c(C2[C@H]3C(=O)N(c4ccc(Cc5ccc(N6C(=O)[C@@H]7ON(c8ccccc8)C(c8c(C)cc(C)cc8C)[C@@H]7C6=O)cc5)cc4)C(=O)[C@H]3ON2c2ccccc2)c(C)c1 (some centres not stated) | – | – | – | > 100 µM | – | > 100 µM | – | – | – | > 100 µM | – | – | – | > 100 µM | – | – | > 100 µM | > 100 µM | – | –
COCCOc1cnc2ccn([C@H](C)c3nnc4c(F)cc(-c5cnn(C)c5)cn34)c(=O)c2c1 | > 100 µM | > 100 µM | > 100 µM | > 100 µM | > 100 µM | > 100 µM | > 100 µM | > 100 µM | > 100 µM | > 100 µM | > 100 µM | > 100 µM | > 100 µM | > 100 µM | > 100 µM | > 100 µM | – | – | – | –
COc1ccc(Nc2c3ccccc3nc3occ(Cl)c23)cc1 | 2.05 µM | 26.2 µM | 0.0199 µM | 0.416 µM | < 0.01 µM | 4.89 µM | 0.0874 µM | 22 µM | < 0.0156 µM | 19.1 µM | < 0.01 µM | < 0.0317 µM | 0.48 µM | > 38.2 µM | 0.0883 µM | > 100 µM | – | – | – | –
Cc1cc(C2CC(O)C(CO)O2)cc2c(=O)[nH]c(N)nc12 (configuration not stated) | > 100 µM | > 100 µM | > 100 µM | > 100 µM | > 100 µM | > 100 µM | > 100 µM | > 100 µM | > 100 µM | > 100 µM | > 100 µM | > 100 µM | > 100 µM | > 100 µM | > 100 µM | > 100 µM | – | – | – | –
Cc1cc(N/N=C/c2nc(-c3ccc(Br)cc3)oc2C)c2cc(Br)ccc2n1 | 10.7 µM | 23.3 µM | 2 µM | 29.7 µM | 4.38 µM | 22.1 µM | 3.81 µM | 13.9 µM | 2.32 µM | 5.84 µM | 2.25 µM | 5.34 µM | 3.87 µM | 23.4 µM | 1.88 µM | 3.9 µM | – | – | – | –
[Au+].[Au+].[Au+].[c-]1nccn1Cc1ccccc1.[c-]1nccn1Cc1ccccc1.[c-]1nccn1Cc1ccccc1 | 5.35 µM | 42.5 µM | 3.71 µM | > 25.5 µM | 1.74 µM | 3.16 µM | 17.7 µM | 32.4 µM | 5.99 µM | 28.5 µM | 11.4 µM | 34.2 µM | 23.1 µM | 59 µM | 7.42 µM | 36.8 µM | 3.7 µM | 3.22 µM | 1.96 µM | 1.83 µM
CCn1c(CO)nn(-c2cc(O[C@@H](C)C(F)(F)F)c(C(=O)Nc3c(F)cccc3Cl)cc2F)c1=O | – | > 100 µM | < 0.01 µM | > 100 µM | < 0.01 µM | > 100 µM | < 0.0192 µM | > 100 µM | < 0.0255 µM | > 100 µM | < 0.0176 µM | > 100 µM | < 0.01 µM | > 100 µM | 0.0723 µM | 86.2 µM | – | – | – | –
COC(=O)/C(C)=C/[N+](=O)[O-] | – | – | – | 6.48 µM | – | 16.6 µM | – | – | – | 57.9 µM | – | – | – | 32.9 µM | – | – | 4.16 µM | 27.9 µM | – | –
CC(=O)O[C@H](C[C@H](C(C)C)N(C)C(=O)[C@@H](NC(=O)[C@H]1CCCCN1C)C(C)C)c1nc(C(=O)N[C@@H](Cc2ccccc2)C[C@H](C)C(=O)O)c(CCOCc2ccccc2)s1 | < 0.001 µM | 0.00816 µM | < 0.001 µM | > 10 µM | < 0.001 µM | < 0.001 µM | < 0.001 µM | 0.00119 µM | < 0.001 µM | > 10 µM | < 0.001 µM | < 0.001 µM | < 0.001 µM | > 10 µM | < 0.001 µM | > 10 µM | – | – | – | –
CN[C@@H](C)[C@H](NC)c1ccccc1 | – | – | – | > 100 µM | – | > 100 µM | – | – | – | – | – | – | – | > 100 µM | – | – | > 100 µM | > 100 µM | – | –
O=C1c2ccc3c4ccccc4n(Cc4ccccc4)c3c2C(=O)N1c1ccccc1 | – | – | – | 3.68 µM | – | 11.1 µM | – | – | – | > 57.6 µM | – | – | – | 42.3 µM | – | – | 37.3 µM | 27.7 µM | – | –
C=CCSS/C=C/CS(=O)CC=C (configuration not stated) | – | > 56.7 µM | – | > 100 µM | – | 66.5 µM | – | > 100 µM | – | > 100 µM | – | 37.3 µM | – | > 100 µM | – | > 100 µM | – | – | – | –

Source: PubChem BioAssay (NCI)
